Results as given in the NIST ThermoML archive (doi:10.1021/acs.jced.7b00106).
Numbers after ± are expanded uncertainties.

Conditions: Hot wire method

FC(F)(F)/C=C/Cl [(E)-1-chloro-3,3,3-trifluoroprop-1-ene]
Conditions	thermal conductivity [W/m/K]
283.61 K, 46184 kPa, Liquid	0.1051 ± 0.0033
283.62 K, 194 kPa, Liquid	0.08723 ± 0.0028
283.64 K, 39507 kPa, Liquid	0.1031 ± 0.0037
283.71 K, 33240 kPa, Liquid	0.1008 ± 0.0031
283.73 K, 64639 kPa, Liquid	0.1101 ± 0.0037
283.76 K, 27097 kPa, Liquid	0.09854 ± 0.0042
283.77 K, 55316 kPa, Liquid	0.1077 ± 0.0038
283.82 K, 46190 kPa, Liquid	0.1049 ± 0.0036
283.86 K, 39512 kPa, Liquid	0.1027 ± 0.0045
283.93 K, 33245 kPa, Liquid	0.1004 ± 0.0031
283.99 K, 27090 kPa, Liquid	0.0982 ± 0.0034
301.07 K, 36400 kPa, Liquid	0.09652 ± 0.0053
301.1 K, 25797 kPa, Liquid	0.09286 ± 0.0055
301.12 K, 8081 kPa, Liquid	0.08639 ± 0.017
301.14 K, 16454 kPa, Liquid	0.08935 ± 0.013
301.14 K, 36402 kPa, Liquid	0.09595 ± 0.015
301.16 K, 25808 kPa, Liquid	0.09205 ± 0.016
301.18 K, 7827 kPa, Liquid	0.08636 ± 0.0037
301.18 K, 8082 kPa, Liquid	0.08488 ± 0.0056
301.18 K, 25511 kPa, Liquid	0.09374 ± 0.021
301.2 K, 16447 kPa, Liquid	0.08939 ± 0.015
301.24 K, 25515 kPa, Liquid	0.09289 ± 0.011
301.25 K, 302 kPa, Liquid	0.08142 ± 0.0067
301.25 K, 4078 kPa, Liquid	0.08444 ± 0.0047
301.25 K, 7830 kPa, Liquid	0.08532 ± 0.0054
301.27 K, 16013 kPa, Liquid	0.08986 ± 0.015
301.31 K, 4086 kPa, Liquid	0.08339 ± 0.0048
301.33 K, 303 kPa, Liquid	0.08177 ± 0.0036
301.39 K, 62986 kPa, Liquid	0.1067 ± 0.021
301.41 K, 56492 kPa, Liquid	0.1055 ± 0.0053
301.42 K, 48436 kPa, Liquid	0.1008 ± 0.007
301.43 K, 65550 kPa, Liquid	0.1085 ± 0.026
301.44 K, 36396 kPa, Liquid	0.09731 ± 0.0041
301.47 K, 62992 kPa, Liquid	0.1061 ± 0.019
301.48 K, 42020 kPa, Liquid	0.09884 ± 0.0035
301.49 K, 25801 kPa, Liquid	0.09292 ± 0.0053
301.49 K, 56482 kPa, Liquid	0.1049 ± 0.0032
301.5 K, 36232 kPa, Liquid	0.09714 ± 0.0039
301.5 K, 48438 kPa, Liquid	0.1006 ± 0.01
301.5 K, 65547 kPa, Liquid	0.1082 ± 0.025
301.52 K, 47198 kPa, Liquid	0.101 ± 0.0072
301.53 K, 8090 kPa, Liquid	0.08523 ± 0.0093
301.53 K, 36388 kPa, Liquid	0.09726 ± 0.0039
301.54 K, 16449 kPa, Liquid	0.09014 ± 0.004
301.54 K, 20530 kPa, Liquid	0.09027 ± 0.0071
301.55 K, 25503 kPa, Liquid	0.09319 ± 0.0051
301.55 K, 30551 kPa, Liquid	0.09454 ± 0.0037
301.56 K, 143 kPa, Gas	0.01127 ± 0.00042
301.56 K, 145 kPa, Gas	0.01102 ± 0.00042
301.56 K, 42014 kPa, Liquid	0.09907 ± 0.003
301.57 K, 36234 kPa, Liquid	0.09632 ± 0.0086
301.58 K, 25794 kPa, Liquid	0.0925 ± 0.004
301.59 K, 122 kPa, Gas	0.01123 ± 0.0004
301.59 K, 131 kPa, Gas	0.01121 ± 0.0004
301.6 K, 7831 kPa, Liquid	0.08616 ± 0.0062
301.6 K, 11892 kPa, Liquid	0.08784 ± 0.0049
301.6 K, 47198 kPa, Liquid	0.1006 ± 0.0035
301.61 K, 16007 kPa, Liquid	0.08871 ± 0.0068
301.62 K, 8093 kPa, Liquid	0.08518 ± 0.0028
301.63 K, 367 kPa, Liquid	0.08213 ± 0.0044
301.63 K, 7868 kPa, Liquid	0.08523 ± 0.0038
301.63 K, 16455 kPa, Liquid	0.08833 ± 0.0033
301.63 K, 20523 kPa, Liquid	0.09097 ± 0.0072
301.63 K, 30560 kPa, Liquid	0.09455 ± 0.0037
301.65 K, 25502 kPa, Liquid	0.09219 ± 0.0087
301.68 K, 4077 kPa, Liquid	0.08414 ± 0.0043
301.69 K, 311 kPa, Liquid	0.08156 ± 0.0027
301.69 K, 11881 kPa, Liquid	0.08767 ± 0.0027
301.69 K, 16012 kPa, Liquid	0.08885 ± 0.009
301.7 K, 7834 kPa, Liquid	0.08567 ± 0.0026
301.72 K, 7864 kPa, Liquid	0.08629 ± 0.0042
301.73 K, 363 kPa, Liquid	0.08194 ± 0.0031
301.77 K, 4081 kPa, Liquid	0.08378 ± 0.0044
301.78 K, 307 kPa, Liquid	0.08197 ± 0.0027
301.79 K, 62991 kPa, Liquid	0.1059 ± 0.0066
301.81 K, 65522 kPa, Liquid	0.1076 ± 0.013
301.83 K, 48074 kPa, Liquid	0.1002 ± 0.0061
301.88 K, 36387 kPa, Liquid	0.09695 ± 0.003
301.89 K, 143 kPa, Gas	0.01116 ± 0.00041
301.89 K, 62976 kPa, Liquid	0.1058 ± 0.0068
301.9 K, 141 kPa, Gas	0.01138 ± 0.00042
301.9 K, 65529 kPa, Liquid	0.1065 ± 0.0073
301.91 K, 122 kPa, Gas	0.01121 ± 0.0004
301.91 K, 42002 kPa, Liquid	0.09897 ± 0.003
301.92 K, 130 kPa, Gas	0.01129 ± 0.0004
301.92 K, 36223 kPa, Liquid	0.09724 ± 0.003
301.92 K, 56462 kPa, Liquid	0.1042 ± 0.0042
301.93 K, 47191 kPa, Liquid	0.1005 ± 0.0034
301.94 K, 25799 kPa, Liquid	0.09347 ± 0.0045
301.94 K, 48073 kPa, Liquid	0.1008 ± 0.0034
301.94 K, 48421 kPa, Liquid	0.1013 ± 0.0036
301.98 K, 30546 kPa, Liquid	0.09459 ± 0.0031
301.99 K, 36387 kPa, Liquid	0.09693 ± 0.0042
302 K, 16444 kPa, Liquid	0.08896 ± 0.0036
302.01 K, 8085 kPa, Liquid	0.08503 ± 0.0032
302.01 K, 20519 kPa, Liquid	0.09088 ± 0.0029
302.01 K, 25500 kPa, Liquid	0.09318 ± 0.0035
302.02 K, 41998 kPa, Liquid	0.09906 ± 0.0033
302.03 K, 47196 kPa, Liquid	0.1005 ± 0.0031
302.04 K, 36232 kPa, Liquid	0.09691 ± 0.0069
302.05 K, 25799 kPa, Liquid	0.0933 ± 0.0075
302.07 K, 11891 kPa, Liquid	0.08755 ± 0.0049
302.07 K, 16014 kPa, Liquid	0.08895 ± 0.0035
302.08 K, 7823 kPa, Liquid	0.08555 ± 0.0046
302.09 K, 30563 kPa, Liquid	0.0947 ± 0.0029
302.12 K, 7862 kPa, Liquid	0.08568 ± 0.0045
302.12 K, 16448 kPa, Liquid	0.08904 ± 0.0095
302.12 K, 20518 kPa, Liquid	0.09092 ± 0.0028
302.12 K, 25501 kPa, Liquid	0.09247 ± 0.0055
302.13 K, 365 kPa, Liquid	0.08182 ± 0.0052
302.13 K, 8079 kPa, Liquid	0.08538 ± 0.0035
302.16 K, 4079 kPa, Liquid	0.0839 ± 0.0045
302.19 K, 312 kPa, Liquid	0.08161 ± 0.0029
302.19 K, 11879 kPa, Liquid	0.08708 ± 0.0044
302.19 K, 16009 kPa, Liquid	0.08853 ± 0.0034
302.2 K, 7820 kPa, Liquid	0.08528 ± 0.0028
302.24 K, 7854 kPa, Liquid	0.08541 ± 0.0049
302.25 K, 142 kPa, Gas	0.01122 ± 0.0004
302.25 K, 62977 kPa, Liquid	0.106 ± 0.0033
302.26 K, 139 kPa, Gas	0.01122 ± 0.0004
302.26 K, 383 kPa, Liquid	0.08132 ± 0.0058
302.27 K, 65494 kPa, Liquid	0.1068 ± 0.0063
302.28 K, 122 kPa, Gas	0.01119 ± 0.0004
302.28 K, 130 kPa, Gas	0.01138 ± 0.00041
302.28 K, 56452 kPa, Liquid	0.1046 ± 0.0032
302.29 K, 4074 kPa, Liquid	0.08366 ± 0.0028
302.3 K, 48061 kPa, Liquid	0.1009 ± 0.0069
302.31 K, 299 kPa, Liquid	0.08152 ± 0.0026
302.31 K, 48422 kPa, Liquid	0.1015 ± 0.0031
302.37 K, 62973 kPa, Liquid	0.1058 ± 0.0033
302.38 K, 36377 kPa, Liquid	0.09716 ± 0.003
302.39 K, 42000 kPa, Liquid	0.09898 ± 0.003
302.39 K, 65480 kPa, Liquid	0.1069 ± 0.0065
302.4 K, 56441 kPa, Liquid	0.104 ± 0.0033
302.41 K, 36234 kPa, Liquid	0.09718 ± 0.003
302.41 K, 47190 kPa, Liquid	0.1008 ± 0.0033
302.42 K, 48052 kPa, Liquid	0.1012 ± 0.0072
302.44 K, 48420 kPa, Liquid	0.1011 ± 0.0035
302.45 K, 25800 kPa, Liquid	0.09349 ± 0.0032
302.47 K, 30544 kPa, Liquid	0.0948 ± 0.0036
302.51 K, 20515 kPa, Liquid	0.09108 ± 0.0034
302.51 K, 25497 kPa, Liquid	0.09286 ± 0.0029
302.51 K, 36380 kPa, Liquid	0.09677 ± 0.003
302.52 K, 41997 kPa, Liquid	0.0988 ± 0.0038
302.53 K, 132 kPa, Gas	0.0109 ± 0.00039
